Experiments:
Assay in all cases: KINOMEscan competition binding
Settings in all cases: compound 1.0 µM
GSK3B (human) = GSK3B (human) (UniProt P49841)
SLK (human) = SLK (human) (UniProt Q9H2G2)
MAP3K11 (human) = MAP3K11 (human) (UniProt Q16584)
LATS2 (human) = LATS2 (human) (UniProt Q9NRM7)
ULK1 (human) = ULK1 (human) (UniProt O75385)
EPHB1 (human) = EPHB1 (human) (UniProt P54762)
CDK5 (human) = CDK5 (human) (UniProt Q00535)
KDR (human) = KDR (human) (UniProt P35968)
STK3 (human) = STK3 (human) (UniProt Q13188)
PRKCE (human) = PRKCE (human) (UniProt Q02156)
MAP3K15 (human) = MAP3K15 (human) (UniProt Q6ZN16)
RIPK2 (human) = RIPK2 (human) (UniProt O43353)
MAP2K1 (human) = MAP2K1 (human) (UniProt Q02750)
RPS6KA4 KD1 (human) = RPS6KA4 KD1 (human) (UniProt O75676)
EPHA6 (human) = EPHA6 (human) (UniProt Q9UF33)
[1] = test system: FLT3 (human), P36888 [D835Y]
MAP4K5 (human) = MAP4K5 (human) (UniProt Q9Y4K4)
MAP3K3 (human) = MAP3K3 (human) (UniProt Q99759)
[2] = test system: EIF2AK4 KD2 (human), Q9P2K8 [S808G]
[3] = test system: KIT (human), P10721 [D816V]
TBK1 (human) = TBK1 (human) (UniProt Q9UHD2)
MAP3K6 (human) = MAP3K6 (human) (UniProt O95382)
MET (human) = MET (human) (UniProt P08581)
Sequence of MET (human) (P08581 whole entry, looked up): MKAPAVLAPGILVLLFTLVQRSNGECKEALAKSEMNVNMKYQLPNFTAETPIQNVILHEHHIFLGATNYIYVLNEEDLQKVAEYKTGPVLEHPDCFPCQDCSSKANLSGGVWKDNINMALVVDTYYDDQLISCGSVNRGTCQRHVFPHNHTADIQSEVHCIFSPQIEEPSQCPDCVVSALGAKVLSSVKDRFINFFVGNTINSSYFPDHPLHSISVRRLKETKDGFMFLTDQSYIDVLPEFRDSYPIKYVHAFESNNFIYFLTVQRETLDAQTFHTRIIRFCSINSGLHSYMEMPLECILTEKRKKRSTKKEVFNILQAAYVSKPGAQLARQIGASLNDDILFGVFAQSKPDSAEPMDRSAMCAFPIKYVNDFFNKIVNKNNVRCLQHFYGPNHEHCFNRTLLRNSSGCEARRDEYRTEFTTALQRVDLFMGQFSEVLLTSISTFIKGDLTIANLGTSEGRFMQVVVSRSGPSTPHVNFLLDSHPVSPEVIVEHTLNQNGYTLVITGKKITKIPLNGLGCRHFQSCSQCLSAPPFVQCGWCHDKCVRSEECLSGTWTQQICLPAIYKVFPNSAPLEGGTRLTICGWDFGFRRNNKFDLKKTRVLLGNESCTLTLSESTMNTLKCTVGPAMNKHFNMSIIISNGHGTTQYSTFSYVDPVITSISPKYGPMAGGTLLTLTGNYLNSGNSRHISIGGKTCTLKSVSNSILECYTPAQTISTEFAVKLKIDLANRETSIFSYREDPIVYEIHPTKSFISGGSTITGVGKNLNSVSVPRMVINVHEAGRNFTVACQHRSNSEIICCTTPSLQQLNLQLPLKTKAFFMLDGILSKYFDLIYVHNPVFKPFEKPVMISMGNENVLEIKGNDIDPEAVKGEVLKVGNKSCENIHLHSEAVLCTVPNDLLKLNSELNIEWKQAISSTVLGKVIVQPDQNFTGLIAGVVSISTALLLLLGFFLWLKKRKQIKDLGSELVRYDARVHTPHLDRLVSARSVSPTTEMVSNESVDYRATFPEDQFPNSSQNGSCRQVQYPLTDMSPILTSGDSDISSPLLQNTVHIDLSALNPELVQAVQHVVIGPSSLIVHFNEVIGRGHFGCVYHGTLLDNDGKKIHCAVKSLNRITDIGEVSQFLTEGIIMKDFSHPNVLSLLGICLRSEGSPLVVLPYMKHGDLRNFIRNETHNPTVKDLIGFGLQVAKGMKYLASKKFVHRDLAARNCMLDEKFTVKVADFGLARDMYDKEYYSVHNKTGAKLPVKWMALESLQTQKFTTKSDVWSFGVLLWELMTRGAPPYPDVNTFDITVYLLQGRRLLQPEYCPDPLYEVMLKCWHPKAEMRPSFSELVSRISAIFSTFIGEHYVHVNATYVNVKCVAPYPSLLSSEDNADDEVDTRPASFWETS

OXSR1 (human) = OXSR1 (human) (UniProt O95747)
PDGFRB (human) = PDGFRB (human) (UniProt P09619)
FRK (human) = FRK (human) (UniProt P42685)
Sequence of FRK (human) (P42685 whole entry, looked up): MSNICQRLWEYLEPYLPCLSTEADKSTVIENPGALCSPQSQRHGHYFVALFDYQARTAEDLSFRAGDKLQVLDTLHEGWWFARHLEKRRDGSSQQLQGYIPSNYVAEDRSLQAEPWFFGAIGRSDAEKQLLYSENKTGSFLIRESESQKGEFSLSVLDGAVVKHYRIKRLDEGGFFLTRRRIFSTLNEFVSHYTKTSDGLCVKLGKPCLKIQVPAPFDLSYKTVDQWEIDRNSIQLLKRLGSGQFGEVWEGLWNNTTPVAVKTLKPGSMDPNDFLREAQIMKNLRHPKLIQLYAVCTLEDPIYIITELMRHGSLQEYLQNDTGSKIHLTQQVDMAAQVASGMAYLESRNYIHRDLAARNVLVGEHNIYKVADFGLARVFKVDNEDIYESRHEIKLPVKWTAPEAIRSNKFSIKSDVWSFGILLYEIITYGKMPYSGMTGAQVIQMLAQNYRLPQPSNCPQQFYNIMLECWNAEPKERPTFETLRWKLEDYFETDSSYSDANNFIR

PTK6 (human) = PTK6 (human) (UniProt Q13882)
MYLK2 (human) = MYLK2 (human) (UniProt Q9H1R3)
[4] = test system: KIT (human), P10721 [V559D/T670I]
PTK2 (human) = PTK2 (human) (UniProt Q05397)
[5] = target: JAK2 JH1 catalytic (human) (UniProt O60674)
Sequence of JAK2 JH1 catalytic (human) (O60674 whole entry, looked up): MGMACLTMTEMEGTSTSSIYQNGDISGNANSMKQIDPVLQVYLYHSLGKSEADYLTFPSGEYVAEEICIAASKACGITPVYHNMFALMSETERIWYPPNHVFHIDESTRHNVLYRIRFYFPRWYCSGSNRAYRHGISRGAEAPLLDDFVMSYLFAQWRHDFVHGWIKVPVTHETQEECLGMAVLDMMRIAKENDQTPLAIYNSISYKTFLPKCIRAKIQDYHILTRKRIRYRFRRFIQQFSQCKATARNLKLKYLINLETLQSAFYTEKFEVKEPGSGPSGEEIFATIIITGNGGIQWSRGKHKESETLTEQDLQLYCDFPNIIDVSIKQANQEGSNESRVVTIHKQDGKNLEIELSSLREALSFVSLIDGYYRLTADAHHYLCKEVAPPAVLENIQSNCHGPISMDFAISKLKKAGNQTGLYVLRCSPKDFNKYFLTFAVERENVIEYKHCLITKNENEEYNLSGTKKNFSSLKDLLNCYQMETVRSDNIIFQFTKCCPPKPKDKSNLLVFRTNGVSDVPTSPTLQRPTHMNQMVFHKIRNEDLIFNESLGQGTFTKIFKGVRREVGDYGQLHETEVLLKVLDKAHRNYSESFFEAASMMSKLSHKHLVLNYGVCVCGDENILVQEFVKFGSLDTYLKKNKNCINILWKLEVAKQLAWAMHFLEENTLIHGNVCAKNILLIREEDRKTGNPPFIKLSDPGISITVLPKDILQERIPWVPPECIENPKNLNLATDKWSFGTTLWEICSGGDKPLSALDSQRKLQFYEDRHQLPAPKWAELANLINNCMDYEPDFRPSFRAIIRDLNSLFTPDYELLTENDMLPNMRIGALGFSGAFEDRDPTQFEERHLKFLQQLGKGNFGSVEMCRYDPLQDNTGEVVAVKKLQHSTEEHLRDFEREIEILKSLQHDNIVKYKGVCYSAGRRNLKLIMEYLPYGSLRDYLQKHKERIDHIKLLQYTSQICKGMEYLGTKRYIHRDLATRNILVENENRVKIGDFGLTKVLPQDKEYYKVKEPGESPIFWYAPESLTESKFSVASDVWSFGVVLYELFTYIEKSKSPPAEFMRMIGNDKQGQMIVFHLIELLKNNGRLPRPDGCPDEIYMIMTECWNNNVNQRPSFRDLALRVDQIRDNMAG

RET (human) = RET (human) (UniProt P07949)
MAP2K6 (human) = MAP2K6 (human) (UniProt P52564)
LTK (human) = LTK (human) (UniProt P29376)
MAP3K10 (human) = MAP3K10 (human) (UniProt Q02779)
DDR1 (human) = DDR1 (human) (UniProt Q08345)
MAP4K4 (human) = MAP4K4 (human) (UniProt O95819)
GAK (human) = GAK (human) (UniProt O14976)
Sequence of GAK (human) (O14976 whole entry, looked up): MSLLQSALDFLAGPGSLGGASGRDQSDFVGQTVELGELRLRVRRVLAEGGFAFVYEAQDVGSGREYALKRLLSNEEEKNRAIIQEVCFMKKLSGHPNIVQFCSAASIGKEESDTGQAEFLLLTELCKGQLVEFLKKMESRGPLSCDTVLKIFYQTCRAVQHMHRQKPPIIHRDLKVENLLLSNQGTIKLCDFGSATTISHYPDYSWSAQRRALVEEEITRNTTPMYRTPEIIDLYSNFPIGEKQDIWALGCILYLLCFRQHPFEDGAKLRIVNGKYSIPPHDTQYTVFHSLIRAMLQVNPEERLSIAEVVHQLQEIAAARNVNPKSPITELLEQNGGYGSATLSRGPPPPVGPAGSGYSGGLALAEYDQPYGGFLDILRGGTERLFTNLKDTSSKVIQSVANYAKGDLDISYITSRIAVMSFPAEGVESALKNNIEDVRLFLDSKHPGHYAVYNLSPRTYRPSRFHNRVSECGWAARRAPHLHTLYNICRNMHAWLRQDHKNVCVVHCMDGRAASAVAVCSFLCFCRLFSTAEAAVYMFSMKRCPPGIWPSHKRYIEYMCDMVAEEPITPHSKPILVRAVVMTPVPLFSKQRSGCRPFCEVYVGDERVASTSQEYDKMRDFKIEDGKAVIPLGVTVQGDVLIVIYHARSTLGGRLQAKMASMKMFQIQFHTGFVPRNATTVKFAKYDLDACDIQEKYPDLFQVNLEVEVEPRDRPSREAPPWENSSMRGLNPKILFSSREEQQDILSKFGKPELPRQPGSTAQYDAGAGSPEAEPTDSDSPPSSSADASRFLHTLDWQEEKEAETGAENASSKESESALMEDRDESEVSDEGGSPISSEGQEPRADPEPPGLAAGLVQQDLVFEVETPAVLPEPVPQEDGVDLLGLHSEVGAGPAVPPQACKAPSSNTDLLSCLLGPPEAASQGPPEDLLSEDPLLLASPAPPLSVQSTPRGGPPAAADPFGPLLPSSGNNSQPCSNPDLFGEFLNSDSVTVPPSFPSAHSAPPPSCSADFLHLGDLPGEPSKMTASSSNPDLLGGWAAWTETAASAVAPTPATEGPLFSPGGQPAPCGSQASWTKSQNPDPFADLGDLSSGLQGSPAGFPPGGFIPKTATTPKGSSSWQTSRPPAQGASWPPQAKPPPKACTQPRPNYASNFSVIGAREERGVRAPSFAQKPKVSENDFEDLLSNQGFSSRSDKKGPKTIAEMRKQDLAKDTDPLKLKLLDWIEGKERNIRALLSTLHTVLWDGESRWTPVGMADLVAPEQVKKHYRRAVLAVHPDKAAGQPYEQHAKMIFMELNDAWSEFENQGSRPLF

BTK (human) = BTK (human) (UniProt Q06187)
Sequence of BTK (human) (Q06187 whole entry, looked up): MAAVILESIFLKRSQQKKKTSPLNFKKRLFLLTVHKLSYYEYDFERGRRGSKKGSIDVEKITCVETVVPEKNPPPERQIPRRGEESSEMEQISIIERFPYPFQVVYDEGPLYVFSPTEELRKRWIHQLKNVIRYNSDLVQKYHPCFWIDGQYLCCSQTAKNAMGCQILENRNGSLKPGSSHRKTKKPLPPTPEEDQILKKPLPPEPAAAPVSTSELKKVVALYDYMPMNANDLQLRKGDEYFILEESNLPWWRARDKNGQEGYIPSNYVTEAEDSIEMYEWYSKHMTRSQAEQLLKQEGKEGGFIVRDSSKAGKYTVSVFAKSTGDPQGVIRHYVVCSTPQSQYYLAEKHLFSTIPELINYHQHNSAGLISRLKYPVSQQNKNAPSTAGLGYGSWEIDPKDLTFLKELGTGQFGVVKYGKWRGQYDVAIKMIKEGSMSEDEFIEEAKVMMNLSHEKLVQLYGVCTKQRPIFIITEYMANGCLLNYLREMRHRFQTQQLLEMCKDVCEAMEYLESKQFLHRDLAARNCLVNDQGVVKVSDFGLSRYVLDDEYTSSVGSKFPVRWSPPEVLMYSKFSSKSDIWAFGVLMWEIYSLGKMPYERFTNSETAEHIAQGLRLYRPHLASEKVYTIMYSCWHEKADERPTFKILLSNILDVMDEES

MST4 (human) = MST4 (human) (UniProt Q9P289)

inhibition of binding (GSK3B (human)): 0%
inhibition of binding (SLK (human)): 0%
inhibition of binding (MAP3K11 (human)): 0%
inhibition of binding (LATS2 (human)): 19%
inhibition of binding (ULK1 (human)): 0%
inhibition of binding (EPHB1 (human)): 0%
inhibition of binding (CDK5 (human)): 0%
inhibition of binding (KDR (human)): 0%
inhibition of binding (STK3 (human)): 0%
inhibition of binding (PRKCE (human)): 0%
inhibition of binding (MAP3K15 (human)): 0%
inhibition of binding (RIPK2 (human)): 0%
inhibition of binding (MAP2K1 (human)): 0%
inhibition of binding (RPS6KA4 KD1 (human)): 4%
inhibition of binding (EPHA6 (human)): 3%
inhibition of binding [1]: 12%
inhibition of binding (MAP4K5 (human)): 0%
inhibition of binding (MAP3K3 (human)): 0%
inhibition of binding [2]: 35%
inhibition of binding [3]: 3%
inhibition of binding (TBK1 (human)): 0%
inhibition of binding (MAP3K6 (human)): 0%
inhibition of binding (MET (human)): 12%
inhibition of binding (OXSR1 (human)): 17%
inhibition of binding (PDGFRB (human)): 0%
inhibition of binding (FRK (human)): 0%
inhibition of binding (PTK6 (human)): 0%
inhibition of binding (MYLK2 (human)): 5%
inhibition of binding [4]: 0%
inhibition of binding (PTK2 (human)): 21%
inhibition of binding [5]: 12%
inhibition of binding (RET (human)): 8%
inhibition of binding (MAP2K6 (human)): 0%
inhibition of binding (LTK (human)): 0%
inhibition of binding (MAP3K10 (human)): 0%
inhibition of binding (DDR1 (human)): 7%
inhibition of binding (MAP4K4 (human)): 9%
inhibition of binding (GAK (human)): 6%
inhibition of binding (BTK (human)): 6%
inhibition of binding (MST4 (human)): 0%
Compound: Nc1cc(C(F)(F)F)c(-c2cc(N3CCOCC3)nc(N3CCOCC3)n2)cn1

— the kinase profiling compilation of Christmann-Franck et al. (2016)
